Where two headings read alike, the source gives them in different places.
Key:
[1] = target: T1, CETP (Homo sapiens, UniProt P11597); experiment: Relative CETP activity after single oral doses, Japanese males (Example 7); format: in vivo; conditions: for response vs control in vivo at 100 mg: 100 mg with food; for response vs control in vivo at 100 mg / response vs control in vivo at 300 mg / response vs control in vivo at 600 mg / response vs control in vivo at 900 mg / response vs control in vivo at 1200 mg / response vs control in vivo at 1500 mg / response vs control in vivo at 1800 mg: read-out: Percent CETP activity relative to pre-dose; for response vs control in vivo at 300 mg: 300 mg with food; for response vs control in vivo at 600 mg: 600 mg with food; for response vs control in vivo at 900 mg: 900 mg with food; for response vs control in vivo at 1200 mg: 1200 mg with food; for response vs control in vivo at 1500 mg: 1500 mg with food; for response vs control in vivo at 1800 mg: 1800 mg with food
T1 construct: from tissue; host or cells: blood / plasma of human subjects dosed orally with Compound I
T1 sequence (P11597 18-493): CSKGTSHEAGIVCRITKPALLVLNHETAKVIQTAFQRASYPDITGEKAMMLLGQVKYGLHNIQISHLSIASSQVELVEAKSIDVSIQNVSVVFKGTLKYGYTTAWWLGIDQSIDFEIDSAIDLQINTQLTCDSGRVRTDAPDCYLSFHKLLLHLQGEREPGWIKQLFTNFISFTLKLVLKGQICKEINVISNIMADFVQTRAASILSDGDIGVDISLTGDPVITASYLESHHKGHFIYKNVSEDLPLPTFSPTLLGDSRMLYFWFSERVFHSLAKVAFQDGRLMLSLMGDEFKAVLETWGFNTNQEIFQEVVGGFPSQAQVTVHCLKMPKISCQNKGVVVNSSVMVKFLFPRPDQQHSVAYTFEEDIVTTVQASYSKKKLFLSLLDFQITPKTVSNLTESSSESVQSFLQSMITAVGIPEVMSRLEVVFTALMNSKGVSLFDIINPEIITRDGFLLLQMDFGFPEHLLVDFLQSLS
Protocol: Administration, dosing, and sampling schedules were commensurate with those described in Example 1. The tablets were prepared as described in Example 1.
Relative CETP activities (calculated as a percentage of baseline CETP activity) and standard deviations (SD) were measured, and the resulting data is summarized in Table 8.

[2] = target: T1, CETP; experiment: CETP activity change from pre-dose after single oral doses, Caucasian males (Example 5); format: in vivo; conditions: for change in vivo at 100 mg: 100 mg with food; for change in vivo at 100 mg / change in vivo at 300 mg / change in vivo at 600 mg / change in vivo at 900 mg / change in vivo at 1200 mg / change in vivo at 1500 mg / change in vivo at 1800 mg: read-out: Percent change from pre-dose in CETP activity (mean); for change in vivo at 300 mg: 300 mg with food; for Decrease in CETP activity relative to pre-dose: 6 hours after administration; for change in vivo at 600 mg: 600 mg with food; for change in vivo at 900 mg: 900 mg with food; for change in vivo at 1200 mg: 1200 mg with food; for change in vivo at 1500 mg: 1500 mg with food; for change in vivo at 1800 mg: 1800 mg with food
Protocol: Administration, dosing, and sampling schedules were substantially similar to those described in Example 1. The tablets were prepared as described in Example 1.
The procedure for determining CETP activity was substantially similar to the procedures described in Tollefson et al., Methods Enzymol., 129, 797-816 (1986), and Kato et al., J. Biol. Chem., 264, 4082-4087 (1989).
CETP activity and changes from baseline (pre-dose) were measured, and the resulting data is summarized in Table 6 as percentage change from baseline.

CCC(CC)CC1(C(=O)Nc2ccccc2SC(=O)C(C)C)CCCCC1 [Compound I, S-[2-([[1-(2-ethylbutyl)cyclohexyl]carbonyl]amino)phenyl]2-methylpropanethioate]
response vs control in vivo at 100 mg ([1]; post-study): 99.2%
response vs control in vivo at 300 mg ([1]; post-study): 96.1%
Decrease in CETP activity relative to pre-dose ([1]; 300 mg, 6 hours after administration): about 19.5%
response vs control in vivo at 600 mg ([1]; post-study): 103%
Decrease in CETP activity relative to pre-dose ([1]; 600 mg, 6 hours after administration): about 62%
response vs control in vivo at 900 mg ([1]; post-study): 95.1%
Decrease in CETP activity relative to pre-dose ([1]; 900 mg, 4 hours after administration): about 76%
response vs control in vivo at 1200 mg ([1]; post-study): 95.2%
response vs control in vivo at 1500 mg ([1]; post-study): 96.9%
response vs control in vivo at 1800 mg ([1]; post-study): 93%
response vs control in vivo at 100 mg ([1]; 1 h, 1 h): 96.2%
response vs control in vivo at 300 mg ([1]; 1 h, 1 h): 100%
response vs control in vivo at 600 mg ([1]; 1 h, 1 h): 100%
response vs control in vivo at 900 mg ([1]; 1 h, 1 h): 100%
response vs control in vivo at 1200 mg ([1]; 1 h, 1 h): 94.2%
response vs control in vivo at 1500 mg ([1]; 1 h, 1 h): 101%
response vs control in vivo at 1800 mg ([1]; 1 h, 1 h): 85.3%
response vs control in vivo at 100 mg ([1]; 2 h, 2 h): 92%
response vs control in vivo at 300 mg ([1]; 2 h, 2 h): 90.7%
response vs control in vivo at 600 mg ([1]; 2 h, 2 h): 87.8%
response vs control in vivo at 900 mg ([1]; 2 h, 2 h): 52.1%
response vs control in vivo at 1200 mg ([1]; 2 h, 2 h): 54%
response vs control in vivo at 1500 mg ([1]; 2 h, 2 h): 85.7%
response vs control in vivo at 1800 mg ([1]; 2 h, 2 h): 15.6%
response vs control in vivo at 100 mg ([1]; 4 h, 4 h): 93.2%
response vs control in vivo at 300 mg ([1]; 4 h, 4 h): 83.1%
response vs control in vivo at 600 mg ([1]; 4 h, 4 h): 52.6%
response vs control in vivo at 900 mg ([1]; 4 h, 4 h): ~24%
response vs control in vivo at 1200 mg ([1]; 4 h, 4 h): 12.1%
response vs control in vivo at 1500 mg ([1]; 4 h, 4 h): 13.3%
response vs control in vivo at 1800 mg ([1]; 4 h, 4 h): 6%
response vs control in vivo at 100 mg ([1]; 6 h, 6 h): 90.4%
response vs control in vivo at 300 mg ([1]; 6 h, 6 h): ~80.5%
response vs control in vivo at 600 mg ([1]; 6 h, 6 h): ~38%
response vs control in vivo at 900 mg ([1]; 6 h, 6 h): 24.1%
response vs control in vivo at 1200 mg ([1]; 6 h, 6 h): 10.5%
response vs control in vivo at 1500 mg ([1]; 6 h, 6 h): 10.6%
response vs control in vivo at 1800 mg ([1]; 6 h, 6 h): 8.4%
response vs control in vivo at 100 mg ([1]; 8 h, 8 h): 90.4%
response vs control in vivo at 300 mg ([1]; 8 h, 8 h): 80.6%
response vs control in vivo at 600 mg ([1]; 8 h, 8 h): 39.1%
response vs control in vivo at 900 mg ([1]; 8 h, 8 h): 29.8%
response vs control in vivo at 1200 mg ([1]; 8 h, 8 h): 14.7%
response vs control in vivo at 1500 mg ([1]; 8 h, 8 h): 15.4%
response vs control in vivo at 1800 mg ([1]; 8 h, 8 h): 12.2%
response vs control in vivo at 100 mg ([1]; 24 h, 24 h): 99.2%
response vs control in vivo at 300 mg ([1]; 24 h, 24 h): 88.8%
response vs control in vivo at 600 mg ([1]; 24 h, 24 h): 65.5%
response vs control in vivo at 900 mg ([1]; 24 h, 24 h): 60.5%
response vs control in vivo at 1200 mg ([1]; 24 h, 24 h): 47.6%
response vs control in vivo at 1500 mg ([1]; 24 h, 24 h): 53.7%
response vs control in vivo at 1800 mg ([1]; 24 h, 24 h): 49.5%
change in vivo at 100 mg ([2]; 1 h): -2%
change in vivo at 100 mg ([2]; 2 h): -2%
change in vivo at 100 mg ([2]; 4 h): -5%
change in vivo at 100 mg ([2]; 6 h): -7%
change in vivo at 100 mg ([2]; 8 h): -6%
change in vivo at 100 mg ([2]; 24 h): -1%
change in vivo at 100 mg ([2]; post-study): -5%
change in vivo at 300 mg ([2]; 1 h): 0%
change in vivo at 300 mg ([2]; 2 h): -7%
change in vivo at 300 mg ([2]; 4 h): -12%
change in vivo at 300 mg ([2]; 6 h): -13%
change in vivo at 300 mg ([2]; 8 h): -13%
change in vivo at 300 mg ([2]; 24 h): -6%
change in vivo at 300 mg ([2]; post-study): 2%
Decrease in CETP activity relative to pre-dose ([2]; 300 mg): 13%
change in vivo at 600 mg ([2]; 1 h): -3%
change in vivo at 600 mg ([2]; 2 h): -12%
change in vivo at 600 mg ([2]; 4 h): -29%
change in vivo at 600 mg ([2]; 6 h): -36%
change in vivo at 600 mg ([2]; 8 h): -36%
change in vivo at 600 mg ([2]; 24 h): -21%
change in vivo at 600 mg ([2]; post-study): -6%
Decrease in CETP activity relative to pre-dose ([2]; 600 mg): 36%
change in vivo at 900 mg ([2]; 1 h): -3%
change in vivo at 900 mg ([2]; 2 h): -23%
change in vivo at 900 mg ([2]; 4 h): -48%
change in vivo at 900 mg ([2]; 6 h): -55%
change in vivo at 900 mg ([2]; 8 h): -53%
change in vivo at 900 mg ([2]; 24 h): -28%
change in vivo at 900 mg ([2]; post-study): -5%
Decrease in CETP activity relative to pre-dose ([2]; 900 mg): 55%
change in vivo at 1200 mg ([2]; 1 h): -3%
change in vivo at 1200 mg ([2]; 2 h): -17%
change in vivo at 1200 mg ([2]; 4 h): -58%
change in vivo at 1200 mg ([2]; 6 h): -71%
change in vivo at 1200 mg ([2]; 8 h): -70%
change in vivo at 1200 mg ([2]; 24 h): -43%
change in vivo at 1200 mg ([2]; post-study): -4%
change in vivo at 1500 mg ([2]; 1 h): -3%
change in vivo at 1500 mg ([2]; 2 h): -32%
change in vivo at 1500 mg ([2]; 4 h): -72%
change in vivo at 1500 mg ([2]; 6 h): -83%
change in vivo at 1500 mg ([2]; 8 h): -81%
change in vivo at 1500 mg ([2]; 24 h): -48%
change in vivo at 1500 mg ([2]; post-study): 0%
change in vivo at 1800 mg ([2]; 1 h): -3%
change in vivo at 1800 mg ([2]; 2 h): -23%
change in vivo at 1800 mg ([2]; 4 h): -67%
change in vivo at 1800 mg ([2]; 6 h): -74%
change in vivo at 1800 mg ([2]; 8 h): -71%
change in vivo at 1800 mg ([2]; 24 h): -42%
change in vivo at 1800 mg ([2]; post-study): -5%
